What follows are compounds tested on Radical scavenging activity (assay: Antioxidant activity assessed as DPPH radical scavenging activity after 30 mins by spectrophotometry).
Type: functional
Compound `CC(C)(Sc1cc(C(C)(C)C)c(O)c(C(C)(C)C)c1)Sc1cc(C(C)(C)C)c(O)c(C(C)(C)C)c1` [PROBUCOL] has an IC50 of 36.1 µM.
In the case of `Cc1c(O)cc(O)c2c1[C@@H](C)[C@H](C)O2`, the IC50 is reported as 10.4 µM.
`O=C(O)c1cc(O)ccc1O` [GENTISIC ACID] was tested, and the IC50 was 4.26 µM.
Work on `O=C1O[C@H]([C@@H](O)CO)C(O)=C1O` [ASCORBIC ACID] yielded an IC50 of 8.92 µM.
Compound `Cc1c(C)c2c(c(C)c1O)CCC(C)(C(=O)O)O2` (stereo not given) [TROLOX] has an IC50 of 8.77 µM.

From ChEMBL document CHEMBL1148145, “2,3,4-Trimethyl-5,7-dihydroxy-2,3-dihydrobenzofuran, a novel antioxidant, from Penicillium citrinum F5” (J Nat Prod, 2002)
